Measurements from the NIST ThermoML archive (doi:10.1016/j.jct.2010.12.028).
± gives the expanded uncertainty stated by the source.

Legend:
[1] = xn = mol fraction of the nth substance listed; settings: 101 kPa, Liquid; for speed of sound: Sing-around technique in a fixed-path interferometer; for mass density: Vibrating tube method
[2] = excess molar enthalpy (molar enthalpy of mixing); xn = mol fraction of the nth substance listed; settings: 308.15 K, 101 kPa, Liquid

Cc1cccnc1 [3-methylpyridine] + Cc1ccccc1N
Settings | excess molar enthalpy, two-drop calorimeter [kcal/mol] | mass density, 298.15 K [kg/m3] | mass density, 303.15 K [kg/m3] | mass density, 308.15 K [kg/m3] | speed of sound, 298.15 K [m/s] | speed of sound, 303.15 K [m/s] | speed of sound, 308.15 K [m/s]
[1], x2 = 0.0447 | – | 955.059 ± 0.24 | 950.551 ± 0.24 | 945.98 ± 0.24 | 1433 ± 2.3 | 1413 ± 2.3 | 1393.3 ± 2.3
[1], x2 = 0.1132 | – | 959.404 ± 0.24 | 954.953 ± 0.24 | 950.452 ± 0.24 | 1446.4 ± 2.3 | 1426.4 ± 2.3 | 1407 ± 2.3
[1], x2 = 0.1771 | – | 963.134 ± 0.24 | 958.721 ± 0.24 | 954.262 ± 0.24 | 1458.6 ± 2.3 | 1438.8 ± 2.3 | 1419.5 ± 2.3
[1], x2 = 0.2069 | – | 964.775 ± 0.24 | 960.381 ± 0.24 | 955.934 ± 0.24 | 1464.1 ± 2.3 | 1444.5 ± 2.3 | 1425.1 ± 2.3
[1], x2 = 0.2467 | – | 966.875 ± 0.24 | 962.502 ± 0.24 | 958.079 ± 0.24 | 1471.5 ± 2.3 | 1451.9 ± 2.3 | 1432.5 ± 2.3
[1], x2 = 0.2888 | – | 968.994 ± 0.24 | 964.629 ± 0.24 | 960.232 ± 0.24 | 1479.1 ± 2.3 | 1459.8 ± 2.3 | 1440.4 ± 2.3
[1], x2 = 0.3112 | – | 970.081 ± 0.24 | 965.722 ± 0.24 | 961.335 ± 0.24 | 1483.1 ± 2.3 | 1463.9 ± 2.3 | 1444.3 ± 2.3
[1], x2 = 0.3624 | – | 972.469 ± 0.24 | 968.119 ± 0.24 | 963.751 ± 0.24 | 1492.2 ± 2.4 | 1473.1 ± 2.3 | 1453.4 ± 2.3
[1], x2 = 0.4182 | – | 974.916 ± 0.24 | 970.586 ± 0.24 | 966.234 ± 0.24 | 1502 ± 2.4 | 1483 ± 2.3 | 1463.2 ± 2.3
[1], x2 = 0.4632 | – | 976.799 ± 0.24 | 972.478 ± 0.24 | 968.134 ± 0.24 | 1509.7 ± 2.4 | 1490.6 ± 2.4 | 1470.9 ± 2.3
[1], x2 = 0.5336 | – | 979.577 ± 0.24 | 975.273 ± 0.24 | 970.94 ± 0.24 | 1521.7 ± 2.4 | 1502.6 ± 2.3 | 1482.7 ± 2.3
[1], x2 = 0.5778 | – | 981.226 ± 0.24 | 976.931 ± 0.24 | 972.616 ± 0.24 | 1529.2 ± 2.4 | 1509.7 ± 2.4 | 1489.9 ± 2.3
[1], x2 = 0.6334 | – | 983.223 ± 0.24 | 978.936 ± 0.24 | 974.642 ± 0.24 | 1538.6 ± 2.4 | 1518.8 ± 2.4 | 1499 ± 2.4
[1], x2 = 0.6967 | – | 985.375 ± 0.24 | 981.112 ± 0.24 | 976.836 ± 0.24 | 1549.2 ± 2.4 | 1528.8 ± 2.3 | 1509.3 ± 2.4
[1], x2 = 0.7372 | – | 986.701 ± 0.24 | 982.449 ± 0.24 | 978.187 ± 0.24 | 1556 ± 2.4 | 1535.1 ± 2.4 | 1515.8 ± 2.4
[1], x2 = 0.8156 | – | 989.151 ± 0.24 | 984.927 ± 0.24 | 980.689 ± 0.24 | 1569.5 ± 2.4 | 1547.5 ± 2.4 | 1528.4 ± 2.4
[1], x2 = 0.8842 | – | 991.171 ± 0.23 | 986.982 ± 0.24 | 982.772 ± 0.24 | 1581.5 ± 2.4 | 1558.4 ± 2.4 | 1539.5 ± 2.4
[1], x2 = 0.9711 | – | 993.588 ± 0.23 | 989.441 ± 0.23 | 985.272 ± 0.24 | 1597.2 ± 2.4 | 1572.8 ± 2.4 | 1553.6 ± 2.4
[2], x2 = 0.0503 | -0.0794 ± 0.00359 | – | – | – | – | – | –
[2], x2 = 0.0843 | -0.125 ± 0.00526 | – | – | – | – | – | –
[2], x2 = 0.1425 | -0.194 ± 0.00789 | – | – | – | – | – | –
[2], x2 = 0.1901 | -0.236 ± 0.00956 | – | – | – | – | – | –
[2], x2 = 0.2323 | -0.268 ± 0.011 | – | – | – | – | – | –
[2], x2 = 0.2837 | -0.301 ± 0.0122 | – | – | – | – | – | –
[2], x2 = 0.3334 | -0.321 ± 0.0131 | – | – | – | – | – | –
[2], x2 = 0.3783 | -0.334 ± 0.0136 | – | – | – | – | – | –
[2], x2 = 0.4436 | -0.337 ± 0.0136 | – | – | – | – | – | –
[2], x2 = 0.4926 | -0.337 ± 0.0136 | – | – | – | – | – | –
[2], x2 = 0.5487 | -0.323 ± 0.0131 | – | – | – | – | – | –
[2], x2 = 0.5902 | -0.312 ± 0.0127 | – | – | – | – | – | –
[2], x2 = 0.6643 | -0.281 ± 0.0115 | – | – | – | – | – | –
[2], x2 = 0.7182 | -0.248 ± 0.01 | – | – | – | – | – | –
[2], x2 = 0.7789 | -0.209 ± 0.0086 | – | – | – | – | – | –
[2], x2 = 0.8348 | -0.163 ± 0.00669 | – | – | – | – | – | –
[2], x2 = 0.8937 | -0.11 ± 0.00454 | – | – | – | – | – | –

Cc1ccncc1 [4-methylpyridine] + Cc1ccccc1N
[1]
Settings | mass density, 298.15 K [kg/m3] | mass density, 303.15 K [kg/m3] | mass density, 308.15 K [kg/m3] | speed of sound, 298.15 K [m/s] | speed of sound, 303.15 K [m/s] | speed of sound, 308.15 K [m/s]
x2 = 0.0525 | 953.707 ± 0.24 | 949.033 ± 0.24 | 944.539 ± 0.24 | 1440.5 ± 2.3 | 1419.5 ± 2.3 | 1399.3 ± 2.3
x2 = 0.1236 | 958.201 ± 0.24 | 953.635 ± 0.24 | 949.213 ± 0.24 | 1452.6 ± 2.3 | 1431.8 ± 2.3 | 1412.2 ± 2.3
x2 = 0.1357 | 958.939 ± 0.24 | 954.384 ± 0.24 | 949.974 ± 0.24 | 1454.8 ± 2.3 | 1433.9 ± 2.3 | 1414.4 ± 2.3
x2 = 0.1839 | 961.774 ± 0.24 | 957.264 ± 0.24 | 952.886 ± 0.24 | 1463.1 ± 2.3 | 1442.5 ± 2.3 | 1423.2 ± 2.3
x2 = 0.2328 | 964.507 ± 0.24 | 960.045 ± 0.24 | 955.673 ± 0.24 | 1471.4 ± 2.3 | 1451.2 ± 2.3 | 1432.1 ± 2.3
x2 = 0.2655 | 966.252 ± 0.24 | 961.821 ± 0.24 | 957.455 ± 0.24 | 1477.1 ± 2.3 | 1457 ± 2.3 | 1438.1 ± 2.3
x2 = 0.3023 | 968.154 ± 0.24 | 963.746 ± 0.24 | 959.382 ± 0.24 | 1483.4 ± 2.3 | 1463.5 ± 2.3 | 1444.7 ± 2.3
x2 = 0.3539 | 970.688 ± 0.24 | 966.314 ± 0.24 | 961.964 ± 0.24 | 1492.2 ± 2.4 | 1472.7 ± 2.3 | 1453.9 ± 2.3
x2 = 0.4133 | 973.431 ± 0.24 | 969.1 ± 0.2 | 964.753 ± 0.24 | 1502.4 ± 2.4 | 1483 ± 2.3 | 1464.4 ± 2.3
x2 = 0.4863 | 976.578 ± 0.24 | 972.285 ± 0.24 | 967.972 ± 0.24 | 1514.7 ± 2.4 | 1495.5 ± 2.4 | 1476.8 ± 2.3
x2 = 0.5256 | 978.183 ± 0.24 | 973.912 ± 0.24 | 969.611 ± 0.24 | 1521.3 ± 2.4 | 1501.9 ± 2.4 | 1483.2 ± 2.3
x2 = 0.5671 | 979.804 ± 0.24 | 975.56 ± 0.24 | 971.274 ± 0.24 | 1528.2 ± 2.4 | 1508.7 ± 2.4 | 1490 ± 2.3
x2 = 0.6272 | 982.039 ± 0.24 | 977.832 ± 0.24 | 973.587 ± 0.24 | 1538.3 ± 2.4 | 1518.4 ± 2.4 | 1499.7 ± 2.3
x2 = 0.6963 | 984.487 ± 0.24 | 980.309 ± 0.24 | 976.116 ± 0.24 | 1549.8 ± 2.4 | 1529.2 ± 2.4 | 1510.4 ± 2.4
x2 = 0.7674 | 986.874 ± 0.24 | 982.738 ± 0.24 | 978.601 ± 0.24 | 1561.7 ± 2.4 | 1540.2 ± 2.4 | 1521.3 ± 2.4
x2 = 0.8234 | 988.699 ± 0.24 | 984.584 ± 0.24 | 980.475 ± 0.24 | 1571.2 ± 2.4 | 1548.8 ± 2.4 | 1530 ± 2.4
x2 = 0.8657 | 990.061 ± 0.24 | 985.955 ± 0.24 | 981.851 ± 0.24 | 1578.4 ± 2.4 | 1555.4 ± 2.4 | 1536.6 ± 2.4
x2 = 0.9537 | 992.867 ± 0.24 | 988.752 ± 0.24 | 984.639 ± 0.24 | 1594 ± 2.4 | 1569.8 ± 2.4 | 1550.6 ± 2.4

[2]
Settings | excess molar enthalpy [kcal/mol]
x2 = 0.0426 | -0.0583 ± 0.00263
x2 = 0.0815 | -0.106 ± 0.00454
x2 = 0.1339 | -0.166 ± 0.00693
x2 = 0.1824 | -0.211 ± 0.0086
x2 = 0.2243 | -0.246 ± 0.01
x2 = 0.2715 | -0.282 ± 0.0115
x2 = 0.3196 | -0.305 ± 0.0124
x2 = 0.3825 | -0.332 ± 0.0136
x2 = 0.4238 | -0.341 ± 0.0139
x2 = 0.4783 | -0.342 ± 0.0139
x2 = 0.5362 | -0.338 ± 0.0139
x2 = 0.5915 | -0.322 ± 0.0131
x2 = 0.6426 | -0.303 ± 0.0124
x2 = 0.7121 | -0.261 ± 0.0108
x2 = 0.7827 | -0.212 ± 0.0086
x2 = 0.8211 | -0.178 ± 0.00741
x2 = 0.8916 | -0.114 ± 0.00478
x2 = 0.9672 | -0.0361 ± 0.00182
